From publication PMC5431883, “Enhancing Specific Disruption of Intracellular Protein Complexes by Hydrocarbon Stapled Peptides Using Lipid Based Delivery” (Scientific Reports, 2017) come the findings set out here.

Positions of bridges follow the written chain, without caps; N, C: chain ends. Non-standard residues stand in square brackets, D forms with d. Residues, ends and D or L forms follow the SMILES beside them. *: point of attachment. Biotin = O=C1N[C@H]2[C@H](CS[C@H]2CCCCC(=O)*)N1; R8 = C=CCCCCCC[C@@](C)(N)C(=O)O; Cba = N[C@@H](CC1CCC1)C(=O)O; S5 = C=CCCC[C@](C)(N)C(=O)O; Ahx = NCCCCCC(=O)O

The assay concerns the target T1, Mdm2 (1-125) (Homo sapiens, UniProt Q00987).
T1 construct: Purified MDM2 (1-125) protein was titrated against 50 nM carboxyfluorescein (FAM)-labeled; GST (N, cleaved yes); made in house; host or cells: E. coli BL21 DE3 (pGEX-6P-1)
Description: Mdm2 competitive fluorescence anisotropy assay (FAM-labeled 12/1 peptide displacement). Further: 250 nM MDM2. The settings on record: read-out: Kd (apparent dissociation constant, competitive fluorescence anisotropy). It is filed as binding. How it is done: analyzed with SDS page gel and concentrated using a Centricon (3.5 kDa MWCO) concentrator, Millipore. Mdm2 protein samples were then dialyzed into a buffer solution containing 20mM Bis-Tris, pH 6.5, 0.05M NaCl with 1mM DTT and loaded onto a monoS column pre-equilibrated in buffer A (20mM Bis-Tris, pH 6.5, 1mM DTT). The column was then washed in 6 column volumes of buffer A and bound protein was eluted with a linear gradient of 1M NaCL over 25 column volumes. Protein fractions were analyzed with SDS page gel and concentrated using a Centricon (3.5 kDa MWCO) concentrator, Millipore.
Protein concentration was determined using A280 using an extinction coefficients […]
Mdm2 Competitive Fluorescence Anisotropy Assay and Kd Determination […]
Dissociation constants for titration of MDM2 against […]
equation shown below:25,26
[P] is the protein concentration (MDM2), [L] is the labeled peptide concentration, r is the anisotropy measured, r0 is the anisotropy of the free peptide, rb is the anisotropy of the MDM2– FAM-labeled peptide complex, Kd is the dissociation constant, [L]t is the total FAM labeled
(1 picture or pasted object on this page, not shown here) […]
peptide concentration, and [P]t is the total MDM2 concentration. […]
respective competing ligands in subsequent competition assays.
Apparent Kd values were determined for a variety of molecules via competitive fluorescence anisotropy experiments. Titrations were carried out with the concentration of MDM2 held constant […]
The competing molecules were then titrated against the complex of the FAM-labeled peptide and protein. Apparent Kd values were determined by fitting the experimental data to the equations shown below:26,27 […]
[L]st and [L]t denote labeled ligand and total unlabeled ligand input concentrations, respectively.
Kd2 is the dissociation constant of the interaction between the unlabeled ligand and the protein. In […]
all competitive types of experiments, it is assumed that [P]t > [L]st, otherwise considerable amounts of free labeled ligand would always be present and would interfere with measurements. Kd1 is the […]
experimentally determined as described in the previous paragraph. The FAM-labeled peptide was dissolved in dimethyl sulfoxide (DMSO) at 1 mM and diluted into experimental buffer. Readings were carried out with an Envision Multilabel Reader (PerkinElmer). Experiments were carried out […]
Tween 20 buffer. All titrations were carried out in triplicate. Curve-fitting was carried out using […]
Negative control titrations of the ligands under investigation were also carried out with the fluorescently labeled peptide (in the absence of MDM2) to ensure no interactions were occurring between the ligands and FAM-labeled peptide. […]
which would otherwise indicate an unintended interaction between the ligand and the FAM-labeled peptide to be displaced from the MDM2 binding site. […]

T1 sequence (Q00987 1-125): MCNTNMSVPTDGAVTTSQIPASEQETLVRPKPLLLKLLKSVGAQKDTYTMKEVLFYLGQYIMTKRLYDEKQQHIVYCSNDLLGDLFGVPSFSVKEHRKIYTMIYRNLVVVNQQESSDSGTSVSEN

Turning to `CC(=O)N[C@H](C(=O)N[C@@H](CO)C(=O)N[C@@H](Cc1ccccc1)C(=O)N[C@]1(C)CCCCCCC=CCCC[C@@](C)(C(=O)N[C@@H](CCC(=O)O)C(=O)N[C@@H](CC(N)=O)C(=O)N[C@@H](Cc2ccccc2)C(N)=O)NC(=O)[C@H](CC(C)C)NC(=O)[C@H](CC(C)C)NC(=O)[C@H](C)NC(=O)[C@H](Cc2c[nH]c3ccccc23)NC(=O)[C@H](Cc2ccc(O)cc2)NC(=O)[C@H](CCC(=O)O)NC1=O)[C@@H](C)O` [VIP-65], the Kd stood at 19.7 ± 1.3 nM.

As to `CC(=O)N[C@H](C(=O)N[C@@H](CO)C(=O)N[C@@H](Cc1ccccc1)C(=O)N[C@]1(C)CCCCCCC=CCCC[C@@](C)(C(=O)N[C@@H](CCC(=O)O)C(=O)N[C@@H](CC(N)=O)C(=O)N[C@@H](Cc2ccc(O)cc2)C(N)=O)NC(=O)[C@H](CC(C)C)NC(=O)[C@H](CC(C)C)NC(=O)[C@H](C)NC(=O)[C@H](Cc2c[nH]c3ccccc23)NC(=O)[C@H](Cc2ccc(O)cc2)NC(=O)[C@H](CCC(=O)O)NC1=O)[C@@H](C)O` [VIP-66], the Kd is 23.1 ± 1.5 nM.

For the molecule `CC(C)C[C@@H]1NC(=O)[C@H](C)NC(=O)[C@H](Cc2c[nH]c3ccccc23)NC(=O)[C@H](Cc2ccc(O)cc2)NC(=O)[C@H](CCC(=O)O)NC(=O)[C@](C)(NC(=O)[C@H](Cc2ccccc2)NC(=O)[C@H](CO)NC(=O)[C@@H](NC(=O)CCCCCNC(=O)CCCC[C@@H]2SC[C@@H]3NC(=O)N[C@@H]32)[C@@H](C)O)CCCCCCC=CCCC[C@@](C)(C(N)=O)NC(=O)[C@H](CC(C)C)NC1=O` [VIP-67], the Kd amounted to 100 ± 7.7 nM.

As to `CC(C)C[C@@H]1NC(=O)[C@H](C)NC(=O)[C@H](Cc2c[nH]c3ccccc23)NC(=O)[C@H](Cc2ccc(O)cc2)NC(=O)[C@H](CCC(=O)O)NC(=O)[C@](C)(NC(=O)[C@H](Cc2ccccc2)NC(=O)[C@H](CO)NC(=O)[C@@H](NC(=O)CCCCCNC(=O)CCCC[C@@H]2SC[C@@H]3NC(=O)N[C@@H]32)[C@@H](C)O)CCCCCCC=CCCC[C@@](C)(C(N)=O)NC(=O)[C@H](CC2CCC2)NC1=O` [VIP-68] ({Biotin-Ahx}-TSF[R8]EYWAL[Cba][S5]-NH2; staple 4-11), the Kd came to 41.6 ± 1.7 nM.

With `CC(=O)N[C@H](C(=O)N[C@@H](CO)C(=O)N[C@@H](Cc1ccccc1)C(=O)N[C@]1(C)CCCCCCC=CCCC[C@@](C)(C(=O)N[C@@H](CCC(=O)O)C(N)=O)NC(=O)[C@H](CC2CCC2)NC(=O)[C@H](CC(C)C)NC(=O)[C@H](C)NC(=O)[C@H](Cc2c[nH]c3ccccc23)NC(=O)[C@H](Cc2ccc(O)cc2)NC(=O)[C@H](CCC(=O)O)NC1=O)[C@@H](C)O` [VIP-71] (Ac-TSF[R8]EYWAL[Cba][S5]E-NH2; staple 4-11), the Kd was 14 ± 1.1 nM.

On to `CC(=O)N[C@H](C(=O)N[C@@H](CO)C(=O)N[C@@H](Cc1ccccc1)C(=O)NC(C)(C)C(=O)N[C@@H](CCC(=O)O)C(=O)N[C@@H](Cc1ccc(O)cc1)C(=O)N[C@@H](Cc1c[nH]c2ccccc12)C(=O)N[C@@H](C)C(=O)N[C@@H](CC(C)C)C(=O)N[C@@H](CC(C)C)C(=O)NC(C)(C)C(=O)N[C@@H](CCC(=O)O)C(N)=O)[C@@H](C)O` [VIP-76], for which the Kd came to 35.9 ± 2.3 nM.

As for `CC(=O)N[C@@H](CCCCN)C(=O)N[C@@H](CCCCN)C(=O)NCCCCCC(=O)N[C@H](C(=O)N[C@@H](CO)C(=O)N[C@@H](Cc1ccccc1)C(=O)N[C@]1(C)CCCCCCC=CCCC[C@@](C)(C(N)=O)NC(=O)[C@H](CC(C)C)NC(=O)[C@H](CC(C)C)NC(=O)[C@H](C)NC(=O)[C@H](Cc2c[nH]c3ccccc23)NC(=O)[C@H](Cc2ccc(O)cc2)NC(=O)[C@H](CCC(=O)O)NC1=O)[C@@H](C)O` [VIP-77], the Kd stood at 46.8 ± 3.9 nM.

Regarding `CC(=O)N[C@@H](CCCNC(=N)N)C(=O)N[C@@H](CCCNC(=N)N)C(=O)N[C@@H](CCCNC(=N)N)C(=O)NCCCCCC(=O)N[C@H](C(=O)N[C@@H](CO)C(=O)N[C@@H](Cc1ccccc1)C(=O)N[C@]1(C)CCCCCCC=CCCC[C@@](C)(C(N)=O)NC(=O)[C@H](CC(C)C)NC(=O)[C@H](CC(C)C)NC(=O)[C@H](C)NC(=O)[C@H](Cc2c[nH]c3ccccc23)NC(=O)[C@H](Cc2ccc(O)cc2)NC(=O)[C@H](CCC(=O)O)NC1=O)[C@@H](C)O` [VIP-78], the Kd was determined as 78.8 ± 8.2 nM.

With `CC(=O)N[C@@H](Cc1c[nH]cn1)C(=O)N[C@@H](Cc1c[nH]cn1)C(=O)N[C@@H](Cc1c[nH]cn1)C(=O)NCCCCCC(=O)N[C@H](C(=O)N[C@@H](CO)C(=O)N[C@@H](Cc1ccccc1)C(=O)N[C@]1(C)CCCCCCC=CCCC[C@@](C)(C(N)=O)NC(=O)[C@H](CC(C)C)NC(=O)[C@H](CC(C)C)NC(=O)[C@H](C)NC(=O)[C@H](Cc2c[nH]c3ccccc23)NC(=O)[C@H](Cc2ccc(O)cc2)NC(=O)[C@H](CCC(=O)O)NC1=O)[C@@H](C)O` [VIP-79], the Kd stood at 130 ± 11.7 nM.

With `CC(=O)N[C@@H](CCCNC(=N)N)C(=O)N[C@@H](CCCNC(=N)N)C(=O)N[C@@H](CCCNC(=N)N)C(=O)NCCCCCC(=O)N[C@H](C(=O)N[C@@H](CO)C(=O)N[C@@H](Cc1ccccc1)C(=O)N[C@]1(C)CCCCCCC=CCCC[C@@](C)(C(=O)N[C@@H](CCC(=O)O)C(=O)N[C@@H](CC(N)=O)C(=O)N[C@@H](Cc2ccccc2)C(N)=O)NC(=O)[C@H](CC(C)C)NC(=O)[C@H](CC(C)C)NC(=O)[C@H](C)NC(=O)[C@H](Cc2c[nH]c3ccccc23)NC(=O)[C@H](Cc2ccc(O)cc2)NC(=O)[C@H](CCC(=O)O)NC1=O)[C@@H](C)O` [VIP-80] (Ac-RRR[Ahx]TSF[R8]EYWALL[S5]ENF-NH2; staple 8-15), the Kd came to 45 ± 4.1 nM.

As for `CC(=O)N[C@@H](Cc1c[nH]cn1)C(=O)N[C@@H](Cc1c[nH]cn1)C(=O)N[C@@H](Cc1c[nH]cn1)C(=O)NCCCCCC(=O)N[C@H](C(=O)N[C@@H](CO)C(=O)N[C@@H](Cc1ccccc1)C(=O)N[C@]1(C)CCCCCCC=CCCC[C@@](C)(C(=O)N[C@@H](CCC(=O)O)C(=O)N[C@@H](CC(N)=O)C(=O)N[C@@H](Cc2ccccc2)C(N)=O)NC(=O)[C@H](CC(C)C)NC(=O)[C@H](CC(C)C)NC(=O)[C@H](C)NC(=O)[C@H](Cc2c[nH]c3ccccc23)NC(=O)[C@H](Cc2ccc(O)cc2)NC(=O)[C@H](CCC(=O)O)NC1=O)[C@@H](C)O` [VIP-81] (Ac-HHH[Ahx]TSF[R8]EYWALL[S5]ENF-NH2; staple 8-15), the Kd is 61.2 ± 6.5 nM.

On to `CC(C)C[C@@H]1NC(=O)[C@H](C)NC(=O)[C@H](Cc2c[nH]c3ccccc23)NC(=O)[C@H](Cc2ccc(O)cc2)NC(=O)[C@H](CCC(=O)O)NC(=O)[C@](C)(NC(=O)[C@H](Cc2ccccc2)NC(=O)[C@H](CO)NC(=O)[C@@H](NC(=O)CCCCCNC(=O)CCCC[C@@H]2SC[C@@H]3NC(=O)N[C@@H]32)[C@@H](C)O)CCCCCCC=CCCC[C@@](C)(C(=O)N[C@@H](CCC(=O)O)C(=O)N[C@@H](CC(N)=O)C(=O)N[C@@H](Cc2ccccc2)C(N)=O)NC(=O)[C@H](CC(C)C)NC1=O` [VIP-83], for which the Kd was found to be 24.6 ± 2.2 nM.

With `CC(=O)N[C@@H](CCCNC(=N)N)C(=O)N[C@@H](CCCNC(=N)N)C(=O)N[C@@H](CCCNC(=N)N)C(=O)NCCCCCC(=O)N[C@H](C(=O)N[C@@H](CO)C(=O)N[C@@H](Cc1ccccc1)C(=O)N[C@]1(C)CCCCCCC=CCCC[C@@](C)(C(=O)N[C@@H](CCC(=O)O)C(=O)N[C@@H](CC(N)=O)C(=O)N[C@@H](Cc2ccc(O)cc2)C(N)=O)NC(=O)[C@H](CC(C)C)NC(=O)[C@H](CC(C)C)NC(=O)[C@H](C)NC(=O)[C@H](Cc2c[nH]c3ccccc23)NC(=O)[C@H](Cc2ccc(O)cc2)NC(=O)[C@H](CCC(=O)O)NC1=O)[C@@H](C)O` [VIP-85] (Ac-RRR[Ahx]TSF[R8]EYWALL[S5]ENY-NH2; staple 8-15), the Kd worked out at 44.9 ± 3.5 nM.

For `CC(=O)N[C@@H](CCCCN)C(=O)N[C@@H](CCCCN)C(=O)NCCCCCC(=O)N[C@H](C(=O)N[C@@H](CO)C(=O)N[C@@H](Cc1ccccc1)C(=O)N[C@]1(C)CCCCCCC=CCCC[C@@](C)(C(=O)N[C@@H](CCC(=O)O)C(=O)N[C@@H](CC(N)=O)C(=O)N[C@@H](Cc2ccc(O)cc2)C(N)=O)NC(=O)[C@H](CC(C)C)NC(=O)[C@H](CC(C)C)NC(=O)[C@H](C)NC(=O)[C@H](Cc2c[nH]c3ccccc23)NC(=O)[C@H](Cc2ccc(O)cc2)NC(=O)[C@H](CCC(=O)O)NC1=O)[C@@H](C)O` [VIP-86] (Ac-KK[Ahx]TSF[R8]EYWALL[S5]ENY-NH2; staple 7-14), the Kd is 23.5 ± 1.4 nM.
